# Non-standard residues stand in square brackets, D forms with d. No end group written: not given here. Nle = CCCC[C@H](N)C(=O)O
# What was measured:
# Erk1/2, Akt = assay: Erk1/2 and Akt phosphorylation in HGF-treated B16-F10 cells (scratch wound assay); assay type: cell-based, murine
# Experimental: Immunoprecipitation and Western blotting. Cells were serum starved for two hours in DMEM before treatment. Cells were harvested using RIPA lysis buffer (Upstate Biotechnol. Inc., Lake Placid, N.Y.) with phosphatase inhibitor cocktails 1 and 2 (Sigma, St Louis, Mo., USA). Protein concentration was determined using the BCA assay (Pierce, Rockford, Ill., USA). Lysates were incubated with antibody overnight at 4° C. Immunoprecipitation controls received mouse non-specific Ig (Upstate). Proteins were captured with protein-A agarose (Upstate) and were washed with PBS. Proteins were resolved using SDS-PAGE electrophoresis (Criterion, BioRad, Hercules, Calif., USA), transferred to nitrocellulose, and incubated with appropriate antibodies. Proteins were visualized using the Supersignal West Pico Chemiluminescent Substrate system (Pierce). The film images were digitized and analyzed using TotalLab® software (AmershamPharmacia/GE HealthCare, Piscataway, N.J.).
# In addition, molecules associated with proliferation and migration signal transduction in B16-F10 melanoma cells were investigated in the scratch wound assay. HGF alone promoted enhanced phosphorylation of the signal transduction molecules Erk1/2, an effect that was attenuated by the presence of Norleual (FIG. 11B).
# B16-F0 murine melanoma = assay: Primary tumor melanoma cancer model; assay type: in vivo, C57BL/6 mice; conditions: male C57 mice, Elvax pellet intramuscular, 21 μg/kg/day
# [1] = tested on: HEK293 cell membranes (c-Met system); assay: 125I-Norleual binding assay, HEK293 cell membranes; set-up: species or system human; conditions: 1.5 nM HGF or 1 μM Norleual
# Experimental: FIG. 3C: ^125I-Norleual was bound to HEK membranes in the presence or absence of 1.5 nM HGF (n=8) or 1 μM Norleual (n=6). Total binding is reported as percent control (n=10), (*p<0.001). Error bars indicate±SD. […] Error bars indicate SD and data points were performed in duplicate.
# ^125I-Norleual binding assay. HEK293 cells were grown to confluency in DMEM fortified with 10% FBS. Media was aspirated and cells were washed twice with ice-cold PBS. Cells were lysed with hypotonic buffer and homogenized as described by Zhang et al. (1999, J. Pharmacol. Exp. Ther. 289: 1075-1083; 2003 J. Cell Biochem. 88: 408-417). 450 μg of membrane protein was incubated with 1.5 nM ^125I-Norleual with or without Norleual or HGF in a total volume of 250 μl PBS, 0.1% BSA. Tubes were spun and binding was carried out for 60 minutes at RT. Bound and free ligands were separated by vacuum filtration using (Brandel Cell Harvester, Schleicher & Schull, Keene, N.H., USA) 32 glass filters. Radioactivity retained by the filters was measured using a gamma counter. […] Data analysis was preformed using Prism software (GraphicPad) per the supplier's recommendations.
# Materials and methods were as described in Example 1. In separate tests of unlabeled competitors, both Norleual and HGF competed with ^125I-HGF for high affinity binding to mouse liver plasma membranes (FIGS. 2A, 2B). […]
# [2] = tested on: +SA WAZ-2T mouse mammary carcinoma cells; assay: Orthotopic +SA WAZ-2T mammary carcinoma model; assay type: in vivo, Balb/c mice
# Experimental: This Example describes Norleaul effects in a mouse model of breast cancer in which animals were orthotopically injected with +SA WAZ-2T mouse mammary carcinoma cells (5×10^5) into the mammary fat pad of 11-week old female Balb/c mice. The +SA cell line was chosen due to its aggressive nature and ability to form highly vascularized tumors with 100% incidence per injection (Danielson et al., 1986). NORLEUAL (SEQ ID NO:43) was delivered via Elvax slow release pellets at doses of 0.3 mg/pellet, 0.03 mg/pellet, and 0.003 mg/pellet, implanted into the mammary glands immediately prior to tumor cell injection. These pellets provided an estimated continuous release of NORLEUAL at doses equivalent to 37.5 μg/kg/day, 3.75 μg/kg/day, and 0.375 μg/kg/day, respectively (based on in vitro release assays of pellets, data not shown). […] Tumor growth was monitored every 2-3 days, based on caliper measurements of the two longest diameters and calculating tumor volume.
# B16-F10 melanoma cells = assay: In vivo pulmonary B16-F10 melanoma metastasis model; set-up: species or system C57BL/6 mice; conditions: tail vein inoculation, IP 50 μg/kg/day, fourteen days, melanin absorbance
# Experimental: (FIG. 13A) C57BL/6 mice were inoculated subcutaneously with B16-F10 cells. Control or Norleual-containing slow release Elvax pellets were implanted inter-muscularly. Tumors were measured with digital calipers and tumor volumes were calculated (n=6), error bars indicate ±SD. (FIG. 13B) 400,000 B16-F10 cells, treated in suspension with either Norleual at 10^−11 M or PBS as a vehicle control, were injected into the tail vein of C57BL/6 mice. Mice received IP injections of Norleual (50 μg/kg/day) or PBS vehicle control. After fourteen days, lungs were removed and the absorbance of melanin was used to quantify metastasis; bars show (left to right) graft recipients treated with vehicle only, Norelual treated graft recipients, and ungrafted age-matched control. Error bars indicate±SEM, with n=5 and *p<0.05. (FIG. 13C) Photo of representative lungs from vehicle-only treated (controls, “Norleal −”) and Norleual treated (“Norleual +”) grafted mice.
# In vivo metastasis. Six to eight month old C57BL/6 mice were injected with 400 000 B16-F10 cells in 200 μl PBS by tail vein injection. Two to three weeks later, mice were anesthetized and lungs were perfused with PBS and removed. […] The supernate was transferred to a 96 well plate and melanin absorbance at 410 nm was measured using a plate reader (Biotek Synergy2, Winooski, Vt., USA). […]
substance,measurement,setting,value
Nle-Tyr-Leu-ψ-His-Pro-Phe ([Nle]YLHPF; also: reduced peptide bond psi(CH2NH2) between Leu and His) [Norleual],HGF-enhanced phosphorylation of Erk1/2,"Erk1/2, Akt",attenuated
same,HGF-induced Akt phosphorylation,"Erk1/2, Akt",did not affect
same,Primary B16-F0 murine melanoma growth,B16-F0 murine melanoma,inhibited
same,Competition for 125I-Norleual specific binding to HEK293 cell membranes,[1],competed
same,Tumor volume,"[2]; 0.003 mg/pellet, n=6",112.7±61 mm^3
same,Tumor mean vessel count/high power field (Factor VIII staining),"[2]; 0.3 mg/pellet, n=5, control 27.8±3",3.0±0.9
same,Delay in onset of palpable tumor mass,"[2]; 0.3 mg/pellet, n=6, control 7 day lag",up to 21 days
same,Inhibition of tumor volume compared to control,"[2]; most effective dose, 0.3 mg/pellet",97%
same,Visible vascularization of tumors removed at conclusion,[2]; treated tumors,total lack of visible vascularization
same,B16-F10 lung metastasis,B16-F10 melanoma cells,dramatically inhibited

# Source: patent US8236761B2, “C-Met receptor regulation by angiotensin IV (AT4) receptor ligands” (Washington State University Research Foundation, priority 2006, dated 2012)
